Measurements from PubChem BioAssay AID1259407 (Chemical Carcinogenesis Research Information System (CCRIS), 2018).
Activity calls are given as the source filed them. How the calls were made is not given here.

System: CCRIS mutagenicity, Ames/micronucleus/aberration tests
Assay: CCRIS mutagenicity studies
[1] = Test System: AMES SALMONELLA TYPHIMURIUM, Strain/Indicator: TA97, Metabolic Activation: NONE, Method: STANDARD PLATE
[2] = Test System: AMES SALMONELLA TYPHIMURIUM, Strain/Indicator: TA97, Metabolic Activation: RAT, LIVER, S-9, AROCLOR 1254, Method: STANDARD PLATE
[3] = Test System: AMES SALMONELLA TYPHIMURIUM, Strain/Indicator: TA98, Metabolic Activation: NONE, Method: STANDARD PLATE
[4] = Test System: AMES SALMONELLA TYPHIMURIUM, Strain/Indicator: TA98, Metabolic Activation: RAT, LIVER, S-9, AROCLOR 1254, Method: STANDARD PLATE
[5] = Test System: AMES SALMONELLA TYPHIMURIUM, Strain/Indicator: TA100, Metabolic Activation: NONE, Method: STANDARD PLATE
[6] = Test System: AMES SALMONELLA TYPHIMURIUM, Strain/Indicator: TA100, Metabolic Activation: RAT, LIVER, S-9, AROCLOR 1254, Method: STANDARD PLATE
[7] = Test System: AMES SALMONELLA TYPHIMURIUM, Strain/Indicator: TA102, Metabolic Activation: RAT, LIVER, S-9, AROCLOR 1254, Method: STANDARD PLATE
[8] = Test System: AMES SALMONELLA TYPHIMURIUM, Strain/Indicator: TA1537, Metabolic Activation: NONE, Method: STANDARD PLATE
[9] = Test System: AMES SALMONELLA TYPHIMURIUM, Strain/Indicator: TA1537, Metabolic Activation: RAT, LIVER, S-9, AROCLOR 1254, Method: STANDARD PLATE

## NCCNc1cccc2ccccc12
Test System: CHINESE HAMSTER OVARY, Strain/Indicator: CHO-K1-BH4 (HGPRT)/6-THIOGUANINE, Metabolic Activation: NONE
  mutagenic call: inactive; negative
Test System: CHINESE HAMSTER OVARY, Strain/Indicator: CHO-K1-BH4 (HGPRT)/6-THIOGUANINE, Metabolic Activation: S-9
  mutagenic call: inactive; negative

## c1ccc2nc3ccccc3cc2c1
[1]
  mutagenic call: inactive; negative
[2]
  mutagenic call: inactive; negative
[3]
  mutagenic call: inactive; negative
[4]
  mutagenic call: inactive; negative
[5]
  mutagenic call: inactive; negative
[6]
  mutagenic call: inactive; negative
Test System: AMES SALMONELLA TYPHIMURIUM, Strain/Indicator: TA1535, Metabolic Activation: NONE, Method: PREINCUBATION
  mutagenic call: inactive; negative
Test System: AMES SALMONELLA TYPHIMURIUM, Strain/Indicator: TA1535, Metabolic Activation: RAT, LIVER, S-9, TETRACHLOROBIPHENYL, Method: PREINCUBATION
  mutagenic call: inactive; negative
Test System: AMES SALMONELLA TYPHIMURIUM, Strain/Indicator: TA1537, Metabolic Activation: NONE, Method: PREINCUBATION
  mutagenic call: inactive; negative
Test System: AMES SALMONELLA TYPHIMURIUM, Strain/Indicator: TA1537, Metabolic Activation: RAT, LIVER, S-9, TETRACHLOROBIPHENYL, Method: PREINCUBATION
  mutagenic call: active; positive
Test System: AMES SALMONELLA TYPHIMURIUM, Strain/Indicator: TA1538, Metabolic Activation: NONE, Method: PREINCUBATION
  mutagenic call: inactive; negative
Test System: AMES SALMONELLA TYPHIMURIUM, Strain/Indicator: TA1538, Metabolic Activation: RAT, LIVER, S-9, TETRACHLOROBIPHENYL, Method: PREINCUBATION
  mutagenic call: inactive; negative

## COc1cc(O)c2c(c1)C(=O)c1cc(C)cc(O)c1C2=O
[3]
  mutagenic call: inactive; negative
[4]
  mutagenic call: inactive; negative
[5]
  mutagenic call: inactive; negative
[6]
  mutagenic call: inactive; negative
[7]
  mutagenic call: inactive; negative
[8]
  mutagenic call: inactive; negative
[9]
  mutagenic call: active; positive
Test System: AMES SALMONELLA TYPHIMURIUM, Strain/Indicator: TA1537, Metabolic Activation: S-9, Method: STANDARD PLATE
  mutagenic call: active; positive

## O=C(O)COc1cc(Cl)c(Cl)cc1Cl
End Point: IN VITRO CHROMOSOMAL ABERRATIONS, Test System: CHINESE HAMSTER OVARY CELLS, Metabolic Activation: NONE
  mutagenic call: inactive; negative
End Point: IN VITRO CHROMOSOMAL ABERRATIONS, Test System: CHINESE HAMSTER OVARY CELLS, Metabolic Activation: RAT, LIVER, S-9, AROCLOR 1254
  mutagenic call: active; positive; precipitation occurred at all doses
[1]
  mutagenic call: inactive; negative
[2]
  mutagenic call: inactive; negative
Test System: AMES SALMONELLA TYPHIMURIUM, Strain/Indicator: TA98, Metabolic Activation: NONE
  mutagenic call: inactive; negative
[3]
  mutagenic call: inactive; negative
Test System: AMES SALMONELLA TYPHIMURIUM, Strain/Indicator: TA98, Metabolic Activation: RAT, LIVER, S-9, AROCLOR 1254
  mutagenic call: inactive; negative
[4]
  mutagenic call: inactive; negative
Test System: AMES SALMONELLA TYPHIMURIUM, Strain/Indicator: TA100, Metabolic Activation: NONE
  mutagenic call: inactive; negative
[5]
  mutagenic call: inactive; negative
Test System: AMES SALMONELLA TYPHIMURIUM, Strain/Indicator: TA100, Metabolic Activation: RAT, LIVER, S-9, AROCLOR 1254
  mutagenic call: inactive; negative
[6]
  mutagenic call: inactive; negative
Test System: AMES SALMONELLA TYPHIMURIUM, Strain/Indicator: TA102, Metabolic Activation: NONE
  mutagenic call: inactive; negative
Test System: AMES SALMONELLA TYPHIMURIUM, Strain/Indicator: TA102, Metabolic Activation: NONE, Method: STANDARD PLATE
  mutagenic call: inactive; negative
Test System: AMES SALMONELLA TYPHIMURIUM, Strain/Indicator: TA102, Metabolic Activation: RAT, LIVER, S-9, AROCLOR 1254
  mutagenic call: inactive; negative
[7]
  mutagenic call: inactive; negative
Test System: AMES SALMONELLA TYPHIMURIUM, Strain/Indicator: TA104, Metabolic Activation: NONE
  mutagenic call: inactive; negative
Test System: AMES SALMONELLA TYPHIMURIUM, Strain/Indicator: TA104, Metabolic Activation: RAT, LIVER, S-9, AROCLOR 1254
  mutagenic call: inactive; negative

## C#CCOCC[n+]1ccccc1/C=N/O
[1]
  mutagenic call: inactive; negative
Test System: AMES SALMONELLA TYPHIMURIUM, Strain/Indicator: TA97, Metabolic Activation: RAT, LIVER, S-9, Method: STANDARD PLATE
  mutagenic call: inactive; negative
[5]
  mutagenic call: inactive; negative
Test System: AMES SALMONELLA TYPHIMURIUM, Strain/Indicator: TA100, Metabolic Activation: RAT, LIVER, S-9, Method: STANDARD PLATE
  mutagenic call: inactive; negative
Test System: AMES SALMONELLA TYPHIMURIUM, Strain/Indicator: TA104, Metabolic Activation: NONE, Method: STANDARD PLATE
  mutagenic call: inactive; negative
Test System: AMES SALMONELLA TYPHIMURIUM, Strain/Indicator: TA104, Metabolic Activation: RAT, LIVER, S-9, Method: STANDARD PLATE
  mutagenic call: inactive; negative
[8]
  mutagenic call: inactive; negative
Test System: AMES SALMONELLA TYPHIMURIUM, Strain/Indicator: TA1537, Metabolic Activation: RAT, LIVER, S-9, Method: STANDARD PLATE
  mutagenic call: inactive; negative
Test System: AMES SALMONELLA TYPHIMURIUM, Strain/Indicator: TA1538, Metabolic Activation: NONE, Method: STANDARD PLATE
  mutagenic call: inactive; negative
Test System: AMES SALMONELLA TYPHIMURIUM, Strain/Indicator: TA1538, Metabolic Activation: RAT, LIVER, S-9, Method: STANDARD PLATE
  mutagenic call: inactive; negative

## Cc1cccc(NS(=O)(=O)c2cccc3cccnc23)c1
[3]
  mutagenic call: inactive; negative
[4]
  mutagenic call: inactive; negative
[5]
  mutagenic call: inactive; negative
[6]
  mutagenic call: inactive; negative
Test System: AMES SALMONELLA TYPHIMURIUM, Strain/Indicator: TA1535, Metabolic Activation: NONE, Method: STANDARD PLATE
  mutagenic call: inactive; negative
Test System: AMES SALMONELLA TYPHIMURIUM, Strain/Indicator: TA1535, Metabolic Activation: RAT, LIVER, S-9, AROCLOR 1254, Method: STANDARD PLATE
  mutagenic call: inactive; negative
[8]
  mutagenic call: inactive; negative
[9]
  mutagenic call: inactive; negative

## O=NN1CCSC1
Test System: AMES SALMONELLA TYPHIMURIUM, Strain/Indicator: TA98, Metabolic Activation: NONE, Method: PREINCUBATION
  mutagenic call: inactive; negative
[3]
  mutagenic call: inactive; negative
Test System: AMES SALMONELLA TYPHIMURIUM, Strain/Indicator: TA98, Metabolic Activation: RAT, LIVER, S-9, AROCLOR 1254, Method: PREINCUBATION
  mutagenic call: inactive; negative
[4]
  mutagenic call: active; positive
[5]
  mutagenic call: active; positive
Test System: AMES SALMONELLA TYPHIMURIUM, Strain/Indicator: TA100, Metabolic Activation: RAT, LIVER, S-9, AROCLOR 1254, Method: PREINCUBATION
  mutagenic call: active; positive
[6]
  mutagenic call: active; positive
Test System: UDS RAT PRIMARY HEPATOCYTES, Strain/Indicator: THY INCORP, Metabolic Activation: NONE
  mutagenic call: active; positive

## O=C(c1ccccc1)C1OC1c1ccc(Oc2ccccc2)cc1 (stereo unspecified)
[3]
  mutagenic call: inactive; negative
[4]
  mutagenic call: inactive; negative
[5]
  mutagenic call: inactive; negative
[6]
  mutagenic call: inactive; negative

## O=[N+]([O-])c1ccc2ccc3cc4c(c5ccc1c2c35)CCC=C4
Test System: AMES SALMONELLA TYPHIMURIUM, Strain/Indicator: TA98 (1,8-DNP6), Metabolic Activation: RAT, LIVER, S-9, AROCLOR 1254, Method: STANDARD PLATE
  mutagenic call: active; positive
Test System: AMES SALMONELLA TYPHIMURIUM, Strain/Indicator: TA98(NR), Metabolic Activation: RAT, LIVER, S-9, AROCLOR 1254, Method: STANDARD PLATE
  mutagenic call: active; positive
[3]
  mutagenic call: active; positive
[4]
  mutagenic call: active; positive
[5]
  mutagenic call: active; positive
[6]
  mutagenic call: active; positive
